{"source": "paper PMC6440935", "about": "“Characterization and phase I study of CLR457, an orally bioavailable pan-class I PI3-kinase inhibitor” (Investigational New Drugs, 2018)", "details": "drug-related", "note": "Where two headings read alike, the source gives them in different places.", "source_text": "The primary objective was to define the maximum tolerated dose (MTD). Secondary objectives included assessments for safety, tolerability, pharmacokinetic (PK) profile, and preliminary antitumor activity.\nPatients had histologically documented locally advanced or metastatic solid tumors harboring an activating PIK3CA mutation or amplification, PTEN loss of function, c-MET activation, [16, 17] […] Other key inclusion criteria included age ≥ 18 years, Eastern Cooperative Oncology Group performance status (ECOG-PS) ≤2, adequate organ function, measurable or non-measurable disease as determined by Response Evaluation Criteria in Solid Tumors (RECIST) version 1.1.\nThe starting dose for CLR457 was 5 mg QD, based on preclinical toxicology studies in accordance with ICH guidelines, and was administered at the same time each day ±2 h in a fasted state. Various doses were planned up to 300 mg QD until MTD determination.\nSafety was evaluated by incidence, nature, severity, and relatedness of adverse events (AEs), and graded according to National Cancer Institute - Common Terminology Criteria for Adverse Events (NCI CTCAE) v4.0.3. DLTs were defined as any hematologic or non-hematologic ≥ Grade 3 AE assessed as possibly related to CLR457 that occurred within the first cycle (28 days) of treatment. In addition, uncontrolled (> 14 days) Grade 2 rash or hyperglycemia were also considered DLTs. All AEs regardless of attribution were collected until 30 days following the last administration of treatment or study discontinuation/termination.\nDescriptive methods were used to tabulate toxicity and response endpoints in the clinical trial. All patients treated with CLR457 were included for safety. […] Dose escalation was guided by an adaptive Bayesian logistic regression model (BLRM) incorporating the escalation with overdose control (EWOC) principle. […] The study data (including DLTs during cycle 1 and other safety and PK data) were reviewed by the sponsor and trial investigators at each dose level. […] The Full Analysis Set (FAS) included all patients who received at least one dose of CLR457. Safety set included all patients who received at least one dose of CLR457 and had at least one valid post-baseline assessment. The Dose-determining set (DDS) included all patients from the safety set who either met the following minimum exposure criterion and had sufficient safety evaluations, or experienced a DLT during Cycle 1 (the first 28 days of dosing). The Pharmacokinetic analysis set included all patients who had at least one blood sample providing evaluable PK data.", "data": [{"smiles": "C[C@H]1OC(=O)N(c2cc(-c3cnc(N)nc3C(F)(F)F)nc(N3CCOCC3)n2)[C@H]1CO", "note": "[CLR457]", "values": [{"measurement": "Cough, Grade ≥ 3", "setting": "10 mg, N = 3", "value": "0 n (%)"}, {"measurement": "Decreased appetite, All Grade", "setting": "10 mg, N = 3", "value": "0 n (%)"}, {"measurement": "Decreased appetite, Grade ≥ 3", "setting": "10 mg, N = 3", "value": "0 n (%)"}, {"measurement": "Decreased neutrophil count, All Grade", "setting": "10 mg, N = 3", "value": "0 n (%)"}, {"measurement": "Decreased neutrophil count, Grade ≥ 3", "setting": "10 mg, N = 3", "value": "0 n (%)"}, {"measurement": "Dehydration, All Grade", "setting": "10 mg, N = 3", "value": "0 n (%)"}, {"measurement": "Dehydration, Grade ≥ 3", "setting": "10 mg, N = 3", "value": "0 n (%)"}, {"measurement": "Diarrhea, All Grade", "setting": "10 mg, N = 3", "value": "0 n (%)"}, {"measurement": "Diarrhea, Grade ≥ 3", "setting": "10 mg, N = 3", "value": "0 n (%)"}, {"measurement": "Dry mouth, All Grade", "setting": "10 mg, N = 3", "value": "0 n (%)"}, {"measurement": "Dry mouth, Grade ≥ 3", "setting": "10 mg, N = 3", "value": "0 n (%)"}, {"measurement": "Dry skin, All Grade", "setting": "10 mg, N = 3", "value": "0 n (%)"}, {"measurement": "Dry skin, Grade ≥ 3", "setting": "10 mg, N = 3", "value": "0 n (%)"}, {"measurement": "Dysgeusia, All Grade", "setting": "10 mg, N = 3", "value": "0 n (%)"}, {"measurement": "Dysgeusia, Grade ≥ 3", "setting": "10 mg, N = 3", "value": "0 n (%)"}, {"measurement": "Fatigue, All Grade", "setting": "10 mg, N = 3", "value": "1 (33.3) n (%)"}, {"measurement": "Fatigue, Grade ≥ 3", "setting": "10 mg, N = 3", "value": "0 n (%)"}, {"measurement": "Headache, All Grade", "setting": "10 mg, N = 3", "value": "0 n (%)"}, {"measurement": "Headache, Grade ≥ 3", "setting": "10 mg, N = 3", "value": "0 n (%)"}, {"measurement": "Hyperglycemia, All Grade", "setting": "10 mg, N = 3", "value": "0 n (%)"}, {"measurement": "Hyperglycemia, Grade ≥ 3", "setting": "10 mg, N = 3", "value": "0 n (%)"}, {"measurement": "Hypomagnesaemia, All Grade", "setting": "10 mg, N = 3", "value": "0 n (%)"}, {"measurement": "Hypomagnesaemia, Grade ≥ 3", "setting": "10 mg, N = 3", "value": "0 n (%)"}, {"measurement": "Maculo-papular rash, All Grade", "setting": "10 mg, N = 3", "value": "0 n (%)"}, {"measurement": "Maculo-papular rash, Grade ≥ 3", "setting": "10 mg, N = 3", "value": "0 n (%)"}, {"measurement": "Nausea, All Grade", "setting": "10 mg, N = 3", "value": "1 (33.3) n (%)"}, {"measurement": "Nausea, Grade ≥ 3", "setting": "10 mg, N = 3", "value": "0 n (%)"}, {"measurement": "Pneumonitis, All Grade", "setting": "10 mg, N = 3", "value": "0 n (%)"}, {"measurement": "Pneumonitis, Grade ≥ 3", "setting": "10 mg, N = 3", "value": "0 n (%)"}, {"measurement": "Pruritus, All Grade", "setting": "10 mg, N = 3", "value": "0 n (%)"}, {"measurement": "Pruritus, Grade ≥ 3", "setting": "10 mg, N = 3", "value": "0 n (%)"}, {"measurement": "Pyrexia, All Grade", "setting": "10 mg, N = 3", "value": "0 n (%)"}, {"measurement": "Pyrexia, Grade ≥ 3", "setting": "10 mg, N = 3", "value": "0 n (%)"}, {"measurement": "Rash, All Grade", "setting": "10 mg, N = 3", "value": "0 n (%)"}, {"measurement": "Rash, Grade ≥ 3", "setting": "10 mg, N = 3", "value": "0 n (%)"}, {"measurement": "Stomatitis, All Grade", "setting": "10 mg, N = 3", "value": "0 n (%)"}, {"measurement": "Stomatitis, Grade ≥ 3", "setting": "10 mg, N = 3", "value": "0 n (%)"}, {"measurement": "Vomiting, All Grade", "setting": "10 mg, N = 3", "value": "0 n (%)"}, {"measurement": "Vomiting, Grade ≥ 3", "setting": "10 mg, N = 3", "value": "0 n (%)"}, {"measurement": "Weight decreased, All Grade", "setting": "10 mg, N = 3", "value": "0 n (%)"}, {"measurement": "Weight decreased, Grade ≥ 3", "setting": "10 mg, N = 3", "value": "0 n (%)"}, {"measurement": "Asthenia, Grade ≥ 3", "setting": "20 mg, N = 4", "value": "0 n (%)"}, {"measurement": "Chills, All Grade", "setting": "20 mg, N = 4", "value": "0 n (%)"}, {"measurement": "Chills, Grade ≥ 3", "setting": "20 mg, N = 4", "value": "0 n (%)"}, {"measurement": "Colitis, All Grade", "setting": "20 mg, N = 4", "value": "0 n (%)"}, {"measurement": "Colitis, Grade ≥ 3", "setting": "20 mg, N = 4", "value": "0 n (%)"}, {"measurement": "Cough, All Grade", "setting": "20 mg, N = 4", "value": "0 n (%)"}, {"measurement": "Cough, Grade ≥ 3", "setting": "20 mg, N = 4", "value": "0 n (%)"}, {"measurement": "Decreased appetite, All Grade", "setting": "20 mg, N = 4", "value": "0 n (%)"}, {"measurement": "Decreased appetite, Grade ≥ 3", "setting": "20 mg, N = 4", "value": "0 n (%)"}, {"measurement": "Decreased neutrophil count, All Grade", "setting": "20 mg, N = 4", "value": "0 n (%)"}, {"measurement": "Decreased neutrophil count, Grade ≥ 3", "setting": "20 mg, N = 4", "value": "0 n (%)"}, {"measurement": "Dehydration, All Grade", "setting": "20 mg, N = 4", "value": "0 n (%)"}, {"measurement": "Dehydration, Grade ≥ 3", "setting": "20 mg, N = 4", "value": "0 n (%)"}, {"measurement": "Diarrhea, All Grade", "setting": "20 mg, N = 4", "value": "0 n (%)"}, {"measurement": "Diarrhea, Grade ≥ 3", "setting": "20 mg, N = 4", "value": "0 n (%)"}, {"measurement": "Dry mouth, All Grade", "setting": "20 mg, N = 4", "value": "0 n (%)"}, {"measurement": "Dry mouth, Grade ≥ 3", "setting": "20 mg, N = 4", "value": "0 n (%)"}, {"measurement": "Dry skin, All Grade", "setting": "20 mg, N = 4", "value": "0 n (%)"}, {"measurement": "Dry skin, Grade ≥ 3", "setting": "20 mg, N = 4", "value": "0 n (%)"}, {"measurement": "Dysgeusia, All Grade", "setting": "20 mg, N = 4", "value": "0 n (%)"}, {"measurement": "Dysgeusia, Grade ≥ 3", "setting": "20 mg, N = 4", "value": "0 n (%)"}, {"measurement": "Fatigue, All Grade", "setting": "20 mg, N = 4", "value": "1 (25.0) n (%)"}, {"measurement": "Fatigue, Grade ≥ 3", "setting": "20 mg, N = 4", "value": "0 n (%)"}, {"measurement": "Headache, All Grade", "setting": "20 mg, N = 4", "value": "0 n (%)"}, {"measurement": "Headache, Grade ≥ 3", "setting": "20 mg, N = 4", "value": "0 n (%)"}, {"measurement": "Hyperglycemia, All Grade", "setting": "20 mg, N = 4", "value": "0 n (%)"}, {"measurement": "Hyperglycemia, Grade ≥ 3", "setting": "20 mg, N = 4", "value": "0 n (%)"}, {"measurement": "Hypomagnesaemia, All Grade", "setting": "20 mg, N = 4", "value": "0 n (%)"}, {"measurement": "Hypomagnesaemia, Grade ≥ 3", "setting": "20 mg, N = 4", "value": "0 n (%)"}, {"measurement": "Maculo-papular rash, All Grade", "setting": "20 mg, N = 4", "value": "0 n (%)"}, {"measurement": "Maculo-papular rash, Grade ≥ 3", "setting": "20 mg, N = 4", "value": "0 n (%)"}, {"measurement": "Nausea, All Grade", "setting": "20 mg, N = 4", "value": "0 n (%)"}, {"measurement": "Nausea, Grade ≥ 3", "setting": "20 mg, N = 4", "value": "0 n (%)"}, {"measurement": "Pneumonitis, All Grade", "setting": "20 mg, N = 4", "value": "0 n (%)"}, {"measurement": "Pneumonitis, Grade ≥ 3", "setting": "20 mg, N = 4", "value": "0 n (%)"}, {"measurement": "Pruritus, All Grade", "setting": "20 mg, N = 4", "value": "0 n (%)"}, {"measurement": "Pruritus, Grade ≥ 3", "setting": "20 mg, N = 4", "value": "0 n (%)"}, {"measurement": "Pyrexia, All Grade", "setting": "20 mg, N = 4", "value": "0 n (%)"}, {"measurement": "Pyrexia, Grade ≥ 3", "setting": "20 mg, N = 4", "value": "0 n (%)"}, {"measurement": "Rash, All Grade", "setting": "20 mg, N = 4", "value": "1 (25.0) n (%)"}, {"measurement": "Rash, Grade ≥ 3", "setting": "20 mg, N = 4", "value": "0 n (%)"}, {"measurement": "Stomatitis, All Grade", "setting": "20 mg, N = 4", "value": "0 n (%)"}, {"measurement": "Stomatitis, Grade ≥ 3", "setting": "20 mg, N = 4", "value": "0 n (%)"}, {"measurement": "Vomiting, All Grade", "setting": "20 mg, N = 4", "value": "0 n (%)"}, {"measurement": "Vomiting, Grade ≥ 3", "setting": "20 mg, N = 4", "value": "0 n (%)"}, {"measurement": "Weight decreased, All Grade", "setting": "20 mg, N = 4", "value": "0 n (%)"}, {"measurement": "Weight decreased, Grade ≥ 3", "setting": "20 mg, N = 4", "value": "0 n (%)"}, {"measurement": "Asthenia, Grade ≥ 3", "setting": "40 mg, N = 5", "value": "0 n (%)"}, {"measurement": "Chills, All Grade", "setting": "40 mg, N = 5", "value": "0 n (%)"}, {"measurement": "Chills, Grade ≥ 3", "setting": "40 mg, N = 5", "value": "0 n (%)"}, {"measurement": "Colitis, All Grade", "setting": "40 mg, N = 5", "value": "0 n (%)"}, {"measurement": "Colitis, Grade ≥ 3", "setting": "40 mg, N = 5", "value": "0 n (%)"}, {"measurement": "Cough, All Grade", "setting": "40 mg, N = 5", "value": "0 n (%)"}, {"measurement": "Cough, Grade ≥ 3", "setting": "40 mg, N = 5", "value": "0 n (%)"}, {"measurement": "Decreased appetite, All Grade", "setting": "40 mg, N = 5", "value": "1 (20.0) n (%)"}, {"measurement": "Decreased appetite, Grade ≥ 3", "setting": "40 mg, N = 5", "value": "0 n (%)"}]}]}
